{"source": "patent US20250152612A1", "about": "“POLYPEPTIDE COUPLED BORON CARRYING AGENT, PREPARATION METHOD THEREFOR, AND PHARMACEUTICAL FORMULATION” (Peking University, priority 2021, published 2025)", "key": {"HS683 cells": {"test_system": "HS683 cells", "settings": "12 hours incubation; B content per 10^6 cells; FIG. 4", "experimental": "(§1) 0.2 mg/g. 0.4 mg/g. 0.6 mg/g and 0.8 mg/g, added to U87MG, U251, A375, A549, HS683 and Hep cell lines cultured in 25 T petri dishes, respectively, and incubated in a thermostatic incubator for 12 hours. Subsequently, the cells and culture medium were separated, and the number of cells was determined. After digesting the cells with concentrated nitric acid, the B content in the cells was determined by ICP-AES.\n(§2) Meanwhile, the BPA was formulated into aqueous solutions of 0.1 mg/g, 0.2 mg/g, 0.4 mg/g, 0.6 mg/g, and 0.8 mg/g, added into U87MG, U251, A375, A549, HS683 and Hep cell lines cultured in 25 T petri dishes, respectively, and incubated in a thermostatic incubator for 12 hours. Subsequently, the cells and culture medium were separated, and the number of cells was determined. After digesting the cells with concentrated nitric acid, the B content in the cells was determined by ICP-AES.\n(§3) The […] is 249.772 nm. After determination, the B content contained in every 10^6 cells can be calculated and plotted in FIG. 4."}, "A375 cells": {"test_system": "A375 cells", "settings": "12 hours incubation; B content per 10^6 cells; FIG. 4", "experimental": "as §1, §2, §3"}}, "data": [{"substance": "N-4-carboxyphenylboronic acid amide-arginine-lysine-lysine-lysine-arginine-arginine-glutamine-arginine-arginine-arginine [compound 2]", "values": [{"measurement": "uptake in cerebral glioma HS683 cells compared with BPA", "setting": "HS683 cells", "result": "significantly higher than BPA"}, {"measurement": "uptake in A375 cells compared with BPA", "setting": "A375 cells", "result": "significantly higher than BPA"}]}]}
